Reference: article PMC9229919, “4-Aminoquinoline-Based Adamantanes as Potential Anticholinesterase Agents in Symptomatic Treatment of Alzheimer’s Disease” (Pharmaceutics, 2022)
Where two headings read alike, the source gives them in different places.

Assays:
recombinant human AChE = molecular target: T1, recombinant human AChE (Homo sapiens, UniProt P22303); assay: biochemical; assay type: biochemical; conditions: for IS: IS = Ki(BChE)/Ki(AChE), IS > 1 selective to AChE
T1 construct: gift of Dr Florian Nachon (Armed Forces Biomedical Research Institute, Brétigny-sur-Orge, France)
T1 sequence (P22303 32-614): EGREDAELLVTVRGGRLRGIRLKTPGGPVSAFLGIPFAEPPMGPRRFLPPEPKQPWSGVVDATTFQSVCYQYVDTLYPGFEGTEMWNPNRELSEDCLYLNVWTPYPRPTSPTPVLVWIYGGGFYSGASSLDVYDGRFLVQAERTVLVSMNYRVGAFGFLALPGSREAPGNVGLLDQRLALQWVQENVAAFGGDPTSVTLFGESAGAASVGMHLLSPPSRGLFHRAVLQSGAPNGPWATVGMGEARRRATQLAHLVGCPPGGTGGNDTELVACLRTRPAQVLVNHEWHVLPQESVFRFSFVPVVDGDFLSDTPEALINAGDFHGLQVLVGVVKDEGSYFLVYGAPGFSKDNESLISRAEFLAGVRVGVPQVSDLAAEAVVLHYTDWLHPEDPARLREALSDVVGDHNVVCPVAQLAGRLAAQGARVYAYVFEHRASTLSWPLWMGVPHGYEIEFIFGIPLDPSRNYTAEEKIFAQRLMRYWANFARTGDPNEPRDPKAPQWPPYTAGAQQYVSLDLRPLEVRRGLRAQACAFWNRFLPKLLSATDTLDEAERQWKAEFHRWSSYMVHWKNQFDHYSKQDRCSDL
In short: (§1)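 Modified Ellman assay with acetylthiocholine and DTNB in 0.1 M sodium phosphate pH 7.4 (enzymes diluted with 0.1% BSA), ≤0.2% DMSO, 25 °C. At least three inhibitor concentrations per substrate level; Ki,app from Hunter–Downs equation, Ki from y-intercept and inhibition type from Ki,app vs [S].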

purified human BChE = molecular target: T2, purified human BChE (Homo sapiens, UniProt P06276); assay: biochemical; assay type: biochemical
T2 construct: possibly also a gift of Dr Florian Nachon (the sentence is ambiguous)
T2 sequence (P06276 29-602): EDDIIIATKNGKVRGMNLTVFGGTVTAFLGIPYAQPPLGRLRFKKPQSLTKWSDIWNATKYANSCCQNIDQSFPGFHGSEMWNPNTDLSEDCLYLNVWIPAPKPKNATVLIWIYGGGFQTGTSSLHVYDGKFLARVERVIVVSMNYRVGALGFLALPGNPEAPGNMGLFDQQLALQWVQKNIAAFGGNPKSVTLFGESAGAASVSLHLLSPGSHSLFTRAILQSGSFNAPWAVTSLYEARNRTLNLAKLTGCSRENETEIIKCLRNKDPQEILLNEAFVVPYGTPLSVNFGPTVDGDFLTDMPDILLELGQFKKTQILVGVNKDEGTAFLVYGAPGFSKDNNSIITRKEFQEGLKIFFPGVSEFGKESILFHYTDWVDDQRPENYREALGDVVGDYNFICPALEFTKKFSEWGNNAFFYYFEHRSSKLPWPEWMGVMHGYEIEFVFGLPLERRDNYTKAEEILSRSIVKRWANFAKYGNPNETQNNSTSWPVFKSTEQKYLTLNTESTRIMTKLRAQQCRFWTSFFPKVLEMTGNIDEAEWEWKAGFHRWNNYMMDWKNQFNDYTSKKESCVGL
In short: as §1

[1] = Ferric reducing antioxidant power (FRAP) assay; conditions: mean ± standard error of three experiments;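 note: expressed as µM Fe2+ equivalents from an FeSO4·7H2O standard curve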
In short: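 Ferric-TPTZ reduction measured by absorbance at 593 nm after 60 min at 37 °C in pH 3.6 acetate-buffered TPTZ/FeCl3 reagent, with test compounds at 10 and 100 µM. FRAP values calculated from an Fe2SO4·7H2O standard curve. Data from three independent experiments.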

[2] = Reverse-phase thin-layer chromatographic lipophilicity (RF, RM0); assay type: physicochemical; conditions: for RM0: intercept of RM = RM0 + bC; for b: slope of RM = RM0 + bC; for RF, Methanol/Water/Hydrochloric acid (conc.), mobile phase I / RF, Dioxane/Water/Hydrochloric acid (conc.), mobile phase II / RF, Methanol/Water/Hydrochloric acid (conc.), mobile phase II / RF, Acetone/Water/Hydrochloric acid (conc.), mobile phase III / RF, Dioxane/Water/Hydrochloric acid (conc.), mobile phase III / RF, Methanol/Water/Hydrochloric acid (conc.), mobile phase III / RF, Dioxane/Water/Hydrochloric acid (conc.), mobile phase IV / RF, Acetone/Water/Hydrochloric acid (conc.), mobile phase IV / RF, Methanol/Water/Hydrochloric acid (conc.), mobile phase IV / RF, Acetone/Water/Hydrochloric acid (conc.), mobile phase IX / RF, Methanol/Water/Hydrochloric acid (conc.), mobile phase IX / RF, Dioxane/Water/Hydrochloric acid (conc.), mobile phase V / RF, Acetone/Water/Hydrochloric acid (conc.), mobile phase V / RF, Methanol/Water/Hydrochloric acid (conc.), mobile phase V / RF, Dioxane/Water/Hydrochloric acid (conc.), mobile phase VI / RF, Acetone/Water/Hydrochloric acid (conc.), mobile phase VI / RF, Methanol/Water/Hydrochloric acid (conc.), mobile phase VI / RF, Acetone/Water/Hydrochloric acid (conc.), mobile phase VII / RF, Methanol/Water/Hydrochloric acid (conc.), mobile phase VII / RF, Acetone/Water/Hydrochloric acid (conc.), mobile phase VIII / RF, Methanol/Water/Hydrochloric acid (conc.), mobile phase VIII / RF, Acetone/Water/Hydrochloric acid (conc.), mobile phase I / RF, Dioxane/Water/Hydrochloric acid (conc.), mobile phase I / RF, Acetone/Water/Hydrochloric acid (conc.), mobile phase II: RP-18 silica; for RF, Methanol/Water/Hydrochloric acid (conc.), mobile phase I: I = 90%MeOH/5%H2O/5%HCl; for RF, Dioxane/Water/Hydrochloric acid (conc.), mobile phase II: II = 80%Dioxane/15%H2O/5%HCl; for RF, Methanol/Water/Hydrochloric acid (conc.), mobile phase II: II = 85%MeOH/10%H2O/5%HCl; for RF, Acetone/Water/Hydrochloric acid (conc.), mobile phase III: III = 70%AC/25%H2O/5%HCl; for RF, Dioxane/Water/Hydrochloric acid (conc.), mobile phase III: III = 70%Dioxane/25%H2O/5%HCl; for RF, Methanol/Water/Hydrochloric acid (conc.), mobile phase III: III = 80%MeOH/15%H2O/5%HCl; for RF, Dioxane/Water/Hydrochloric acid (conc.), mobile phase IV: IV = 60%Dioxane/35%H2O/5%HCl; for RF, Acetone/Water/Hydrochloric acid (conc.), mobile phase IV: IV = 65%AC/30%H2O/5%HCl; for RF, Methanol/Water/Hydrochloric acid (conc.), mobile phase IV: IV = 75%MeOH/20%H2O/5%HCl; for RF, Acetone/Water/Hydrochloric acid (conc.), mobile phase IX: IX = 40%AC/55%H2O/5%HCl; for RF, Methanol/Water/Hydrochloric acid (conc.), mobile phase IX: IX = 50%MeOH/45%H2O/5%HCl; for RF, Dioxane/Water/Hydrochloric acid (conc.), mobile phase V: V = 50%Dioxane/45%H2O/5%HCl; for RF, Acetone/Water/Hydrochloric acid (conc.), mobile phase V: V = 60%AC/35%H2O/5%HCl; for RF, Methanol/Water/Hydrochloric acid (conc.), mobile phase V: V = 70%MeOH/25%H2O/5%HCl; for RF, Dioxane/Water/Hydrochloric acid (conc.), mobile phase VI: VI = 40%Dioxane/55%H2O/5%HCl; for RF, Acetone/Water/Hydrochloric acid (conc.), mobile phase VI: VI = 55%AC/40%H2O/5%HCl; for RF, Methanol/Water/Hydrochloric acid (conc.), mobile phase VI: VI = 65%MeOH/30%H2O/5%HCl; for RF, Acetone/Water/Hydrochloric acid (conc.), mobile phase VII: VII = 50%AC/45%H2O/5%HCl; for RF, Methanol/Water/Hydrochloric acid (conc.), mobile phase VII: VII = 60%MeOH/35%H2O/5%HCl; for RF, Acetone/Water/Hydrochloric acid (conc.), mobile phase VIII: VIII = 45%AC/50%H2O/5%HCl; for RF, Methanol/Water/Hydrochloric acid (conc.), mobile phase VIII: VIII = 55%MeOH/40%H2O/5%HCl; for RF, Acetone/Water/Hydrochloric acid (conc.), mobile phase I: I = 80%AC/15%H2O/5%HCl; for RF, Dioxane/Water/Hydrochloric acid (conc.), mobile phase I: I = 90%Dioxane/5%H2O/5%HCl; for RF, Acetone/Water/Hydrochloric acid (conc.), mobile phase II: II = 75%AC/20%H2O/5%HCl
In short: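 Lipophilicity from RP-TLC retention at 22±2 °C over a 4.5 cm development distance. Eluents: organic modifier (methanol, acetone or dioxane), water and hydrochloric acid, methanol stepped by 10%. RM0 obtained from RF.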

[3] = log (Ki/µM AChE), read-out: Y Measured 1 log(ki)Ache (converted)
[4] = ± standard error, 25 °C, ATCh substrate, read-out: Ki AChE
[5] = logarithm of Ki in µM, BChE, dependent variable of the QSAR model, read-out: Y Measured 2 log(ki)Bche, log (Ki/µM BChE) (converted)
[6] = ± standard error, 25 °C, ATCh substrate, read-out: Ki BChE
[7] = Acetone/Water/Hydrochloric acid (conc.)
[8] = Dioxane/Water/Hydrochloric acid (conc.)
[9] = Methanol/Water/Hydrochloric acid (conc.)

| SMILES | IS (recombinant human AChE) | Ki (recombinant human AChE; [4]) [µM] | Ki (purified human BChE; [6]) [µM] | FRAP ([1]; 10 µM compound) [µM] | FRAP ([1]; 100 µM compound) [µM] | RM0 [2, 7] | b [2, 7] | RM0 [2, 8] | b [2, 8] | RM0 [2, 9] | b [2, 9] | RF, Methanol/Water/Hydrochloric acid (conc.), mobile phase I [2] | RF, Dioxane/Water/Hydrochloric acid (conc.), mobile phase II [2] | RF, Methanol/Water/Hydrochloric acid (conc.), mobile phase II [2] | RF, Acetone/Water/Hydrochloric acid (conc.), mobile phase III [2] | RF, Dioxane/Water/Hydrochloric acid (conc.), mobile phase III [2] | RF, Methanol/Water/Hydrochloric acid (conc.), mobile phase III [2] | RF, Dioxane/Water/Hydrochloric acid (conc.), mobile phase IV [2] | RF, Acetone/Water/Hydrochloric acid (conc.), mobile phase IV [2] | RF, Methanol/Water/Hydrochloric acid (conc.), mobile phase IV [2] | other results |
| --- | --- | --- | --- | --- | --- | --- | --- | --- | --- | --- | --- | --- | --- | --- | --- | --- | --- | --- | --- | --- | --- |
| Clc1ccc2c(NCCNCCC34CC5CC(CC(C5)C3)C4)ccnc2c1 [Compound 8] | 0.6 | 1.6 ± 0.1 | 0.92 ± 0.07 | 33 ± 12 | 62 ± 7 | 2.227 | 3.421 | 1.144 | 2.1084 | 2.713 | 3.446 | 0.69 | 0.74 | 0.63 | 0.55 | 0.68 | 0.45 | 0.66 | 0.5 | 0.47 | Ki (recombinant human AChE; [3]): 1.6 µM; Ki (purified human BChE; [5]): 0.92 µM; RF, Acetone/Water/Hydrochloric acid (conc.), mobile phase IX [2]: 0.08; RF, Methanol/Water/Hydrochloric acid (conc.), mobile phase IX [2]: 0.08; RF, Dioxane/Water/Hydrochloric acid (conc.), mobile phase V [2]: 0.47; RF, Acetone/Water/Hydrochloric acid (conc.), mobile phase V [2]: 0.39; RF, Methanol/Water/Hydrochloric acid (conc.), mobile phase V [2]: 0.39; RF, Dioxane/Water/Hydrochloric acid (conc.), mobile phase VI [2]: 0.28; RF, Acetone/Water/Hydrochloric acid (conc.), mobile phase VI [2]: 0.34; RF, Methanol/Water/Hydrochloric acid (conc.), mobile phase VI [2]: 0.28; RF, Acetone/Water/Hydrochloric acid (conc.), mobile phase VII [2]: 0.29; RF, Methanol/Water/Hydrochloric acid (conc.), mobile phase VII [2]: 0.18; RF, Acetone/Water/Hydrochloric acid (conc.), mobile phase VIII [2]: 0.21; RF, Methanol/Water/Hydrochloric acid (conc.), mobile phase VIII [2]: 0.13 |
| Clc1ccc2c(NCCN(CCC34CC5CC(CC(C5)C3)C4)CCC34CC5CC(CC(C5)C3)C4)ccnc2c1 [Compound 9] | 0.3 | 5.2 ± 0.2 | 1.5 ± 0.2 | 3.4 ± 0.0 | 29 ± 6 | 3.559 | 4.683 | 2.268 | 3.179 | 5.446 | 5.91 | 0.44 | 0.65 | 0.31 | 0.33 | 0.55 | 0.11 | 0.42 | 0.28 | 0.1 | Ki (recombinant human AChE; [3]): 5.2 µM; Ki (purified human BChE; [5]): 1.5 µM; RF, Acetone/Water/Hydrochloric acid (conc.), mobile phase I [2]: 0.58; RF, Dioxane/Water/Hydrochloric acid (conc.), mobile phase I [2]: 0.75; RF, Acetone/Water/Hydrochloric acid (conc.), mobile phase II [2]: 0.5; RF, Acetone/Water/Hydrochloric acid (conc.), mobile phase IX [2]: 0; RF, Methanol/Water/Hydrochloric acid (conc.), mobile phase IX [2]: 0; RF, Dioxane/Water/Hydrochloric acid (conc.), mobile phase V [2]: 0.11; RF, Acetone/Water/Hydrochloric acid (conc.), mobile phase V [2]: 0.13; RF, Methanol/Water/Hydrochloric acid (conc.), mobile phase V [2]: 0.05; RF, Dioxane/Water/Hydrochloric acid (conc.), mobile phase VI [2]: 0; RF, Acetone/Water/Hydrochloric acid (conc.), mobile phase VI [2]: 0.09; RF, Methanol/Water/Hydrochloric acid (conc.), mobile phase VI [2]: 0.01; RF, Acetone/Water/Hydrochloric acid (conc.), mobile phase VII [2]: 0; RF, Methanol/Water/Hydrochloric acid (conc.), mobile phase VII [2]: 0; RF, Acetone/Water/Hydrochloric acid (conc.), mobile phase VIII [2]: 0; RF, Methanol/Water/Hydrochloric acid (conc.), mobile phase VIII [2]: 0 |
| Clc1ccc2c(NCCCCN(CCC34CC5CC(CC(C5)C3)C4)CCC34CC5CC(CC(C5)C3)C4)ccnc2c1 [Compound 10] | 0.4 | 2.4 ± 0.2 | 1 ± 0.1 | 13 ± 4 | 90 ± 6 | 3.647 | 4.824 | 1.984 | 2.852 | 5.456 | 5.91 | 0.44 | 0.65 | 0.31 | 0.33 | 0.59 | 0.1 | 0.47 | 0.28 | 0.1 | RF, Acetone/Water/Hydrochloric acid (conc.), mobile phase I [2]: 0.59; RF, Dioxane/Water/Hydrochloric acid (conc.), mobile phase I [2]: 0.75; RF, Acetone/Water/Hydrochloric acid (conc.), mobile phase II [2]: 0.52; RF, Acetone/Water/Hydrochloric acid (conc.), mobile phase IX [2]: 0; RF, Methanol/Water/Hydrochloric acid (conc.), mobile phase IX [2]: 0; RF, Dioxane/Water/Hydrochloric acid (conc.), mobile phase V [2]: 0.14; RF, Acetone/Water/Hydrochloric acid (conc.), mobile phase V [2]: 0.13; RF, Methanol/Water/Hydrochloric acid (conc.), mobile phase V [2]: 0.05; RF, Dioxane/Water/Hydrochloric acid (conc.), mobile phase VI [2]: 0; RF, Acetone/Water/Hydrochloric acid (conc.), mobile phase VI [2]: 0.09; RF, Methanol/Water/Hydrochloric acid (conc.), mobile phase VI [2]: 0.01; RF, Acetone/Water/Hydrochloric acid (conc.), mobile phase VII [2]: 0; RF, Methanol/Water/Hydrochloric acid (conc.), mobile phase VII [2]: 0; RF, Acetone/Water/Hydrochloric acid (conc.), mobile phase VIII [2]: 0; RF, Methanol/Water/Hydrochloric acid (conc.), mobile phase VIII [2]: 0 |
